Key:
BRAF (V600E) = BRAF (V600E) (Homo sapiens, UniProt P15056, V600E); assay: KD BRAF (V600E) (Table 1); assay type: binding
[1] = test system: P-ERK (ERK phospho-T202/Y204) in HCT116 cells expressing WT BRAF; assay: HTRF assay for P-ERK determination in HCT116 cells (BRAF activation); assay type: cell-based; details: Homo sapiens, HCT-116, drug incubation 1 hour, concentration giving 50% of the maximum activation achieved by Dabrafenib
Excerpt: (§1) A375 is a cellular cancer model expressing V600E mutated BRAF and HCT116 a cellular cancer model expressing WT BRAF. First generation BRAF inhibitors such as e.g. dabrafenib induce a paradox effect on tumour cells in that they inhibit the growth of V600E mutated BRAF cells (such as e.g. A375), while they activate growth in WT BRAF cells (such as e.g. HCT 116). ERK 1,2 phosphorylation (terminal member of the phosphorylation cascade of the MAPK pathway) is hereafter reported as main readout for the activation status of the MAPK pathway. DMEM no-phenol red medium supplemented with L-glutamine was purchased from (Thermo Fisher Scientific). Fetal bovine serum (FBS) was purchased from VWR. Advanced ERK phospho-T202/Y204 kit—10,000 tests was purchased from Cisbio cat #64AERPEH. A375 (catalog #CRL-1619) and HCT116 (catalog #CCL-247) cells were originally obtained from American type Culture Collection (ATCC) and banked by the Roche repository. 384-Well microplates utilized were purchased from Greiner Bio-One, 384-well, (With Lid, HiBase, Low volume cat 784-080).
(§2) Prior to the assay, A375 and HCT116 cell lines are maintained in DMEM no-phenol red medium supplemented with 10% fetal bovine serum (FBS). Following compound treatment, P-ERK levels are determined by measuring FRET fluorescence signal induced by selective binding of 2 antibodies provided in the mentioned kit (Cisbio cat #64AERPEH) on ERK protein when phosphorylated at Thr202/Tyr204. Briefly, 8000 cells/well in 12 μl media/well are plated in the 384-well plate and left overnight in the incubator (at 37° C. with 5% CO2-humidified atmosphere), the following day the plate is treated in duplicate with test compounds, dabrafenib and PLX8394 (the latter two as controls) at the following final drug concentrations: 10 μM-3 μM 1 μM-0.3 μM-0.1 μM-0.03 μM-0, 01 μM-0.003 μM-0.001 μM, all wells are subjected to DMSO normalization and drug incubation occurs for 1 hour. Then, […] of a 4× lysis buffer supplied with the kit are added to the wells, the plate is then centrifuged for 30 second (3000 rpm) and incubated on a plate shaker for 1 h at rt.
(§3) At the end of the incubation 4 μL/well of advanced P-ERK antibody solution (prepared according to manufacturer's instruction) followed by 4 μL/well of criptate P-ERK antibody solution (prepared according to manufacturer's instruction) (Cisbio cat #64AERPEH) are added to test wells.
(§4) In order to allow proper data normalization control wells non drug treated reported in the following table are always included in each plate (according to manufacturer's instruction):
(§5) The plate is then centrifuged at 3000 rpm for 30 second, sealed to prevent evaporation and incubated overnight in the dark at room temperature.
(§6) The plate is then analyzed and fluorescence emission value collected through a Pherastast FSX (BMG Labtech) apparatus at […].
(§7) The obtained fluorescence values are processed according to the formula Ratio=[…]*10000 then the average of the ratio on the blank is subtracted to all values.
Data are normalized in the case of HCT116 cells (BRAF activation) considering the average of the ratio (blank subtracted) derived by DMSO only treated cells as 0% and by considering the average of the ratio (blank subtracted) derived by Dabrafenib treated cells at the concentration which provides the highest signal as 100%. Individual points are fitted with either sigmoidal or bell shape curves. The EC50 is the concentration at which activation equal to 50% of the maximum activation achieved by Dabrafenib is obtained.

BRAF (wt) = BRAF (wt) (Homo sapiens, UniProt P15056); assay: KD BRAF (wt) (Table 1); assay type: binding
BRAF (wt), sequence (P15056 whole entry): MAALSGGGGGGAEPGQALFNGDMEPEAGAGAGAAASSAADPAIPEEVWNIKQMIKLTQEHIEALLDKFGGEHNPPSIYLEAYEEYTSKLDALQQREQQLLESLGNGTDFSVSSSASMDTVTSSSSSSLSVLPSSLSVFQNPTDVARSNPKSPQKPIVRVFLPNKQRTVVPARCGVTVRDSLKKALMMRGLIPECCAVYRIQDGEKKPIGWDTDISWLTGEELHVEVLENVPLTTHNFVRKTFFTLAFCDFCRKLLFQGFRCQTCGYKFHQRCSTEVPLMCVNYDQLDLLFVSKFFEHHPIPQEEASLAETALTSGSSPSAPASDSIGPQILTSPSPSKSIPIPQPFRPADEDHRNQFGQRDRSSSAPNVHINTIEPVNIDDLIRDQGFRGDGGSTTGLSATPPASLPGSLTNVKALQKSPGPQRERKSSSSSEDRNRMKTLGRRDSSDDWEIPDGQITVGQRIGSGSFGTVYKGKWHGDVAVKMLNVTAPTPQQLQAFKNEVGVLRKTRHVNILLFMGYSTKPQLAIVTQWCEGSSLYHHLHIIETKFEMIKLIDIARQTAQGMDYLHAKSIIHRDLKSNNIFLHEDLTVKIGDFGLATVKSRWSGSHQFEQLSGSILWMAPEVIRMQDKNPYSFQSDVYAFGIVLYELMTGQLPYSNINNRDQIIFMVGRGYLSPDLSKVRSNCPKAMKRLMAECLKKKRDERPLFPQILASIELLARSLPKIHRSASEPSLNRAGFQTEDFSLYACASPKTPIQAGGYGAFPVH

[2] = test system: P-ERK (ERK phospho-T202/Y204) in A375 cells expressing V600E mutated BRAF; assay: HTRF assay for P-ERK determination in A375 cells (BRAF inhibition); assay type: cell-based; details: Homo sapiens, A-375, P-ERK level, drug incubation 1 hour, DMSO = 100%, 10 μM Dabrafenib = 0%
Excerpt: as §1, §2, §3, §4, §5, §6, §7
Data are normalized in the case of A375 cells (BRAF inhibition) considering the average of the ratio (blank subtracted) derived by DMSO only treated cells as 100% and by considering the average of the ratio (blank subtracted) derived by 10 μM Dabrafenib treated cells as 0%. Mean of the normalized points are fitted with sigmoidal curve and IC50 determined.

BRAF (V600E), sequence (P15056 whole entry V600E): as the sequence (P15056 whole entry) above, with V600E counted along it

Compound	Kd (BRAF (V600E))	EC50 [1]	Kd (BRAF (wt))	IC50 [2]
CCN(C)S(=O)(=O)Nc1cccc(Nc2ccc3ncn(CC4CCN(C(C)=O)CC4)c(=O)c3c2)c1C#N [Example 33, 3-[(1-acetyl-4-piperidyl)methyl]-6-[2-cyano-3-[[ethyl(methyl)sulfamoyl]amino]anilino]-4-oxo-quinazoline]	92.9 nM	≥ 10000 nM	45.6 nM	576 nM
N#Cc1c(Nc2ccc3ncn(CCCC(=O)O)c(=O)c3c2)cccc1NS(=O)(=O)N1CC[C@@H](F)C1 [Example 39, 4-[6-[2-cyano-3-[[(3R)-3-fluoropyrrolidin-1-yl]sulfonylamino]anilino]-4-oxo-quinazolin-3-yl]butanoic acid]	48.3 nM	≥ 10000 nM	11.6 nM	≥ 10000 nM
N#Cc1c(Nc2ccc3ncn(CCOCc4ccccc4)c(=O)c3c2)cccc1NS(=O)(=O)N1CC[C@@H](F)C1 [Example 36, (3R)—N-[3-[[3-(2-benzyloxyethyl)-4-oxo-quinazolin-6-yl]amino]-2-cyano-phenyl]-3-fluoro-pyrrolidine-1-sulfonamide]	273 nM	≥ 10000 nM	131 nM	114 nM
CC(C)(C)OC(=O)N1CCN(C(=O)CCCn2cnc3ccc(Nc4cccc(NS(=O)(=O)N5CC[C@@H](F)C5)c4C#N)cc3c2=O)CC1 [Example 40, tert-butyl 4-[4-[6-[2-cyano-3-[[(3R)-3-fluoropyrrolidin-1-yl]sulfonylamino]anilino]-4-oxo-quinazolin-3-yl]butanoyl]piperazine-1-carboxylate]	7.88 nM	≥ 10000 nM	3.71 nM	334 nM
CCN(C)S(=O)(=O)Nc1ccc(F)c(Oc2ccc3ncn(CCN4CCN(C(=O)OC(C)(C)C)CC4)c(=O)c3c2)c1C#N [Example 27, tert-butyl 4-[2-[6-[2-cyano-3-[[ethyl(methyl)sulfamoyl]amino]-6-fluoro-phenoxy]-4-oxo-quinazolin-3-yl]ethyl]piperazine-1-carboxylate]	28.4 nM	6860 nM	16.3 nM	6.99 nM
CCN(C)S(=O)(=O)Nc1cccc(Nc2ccc3ncn(CC(=O)NCCOC)c(=O)c3c2)c1C#N [Example 31, 2-[6-[2-cyano-3-[[ethyl(methyl)sulfamoyl]amino]anilino]-4-oxo-quinazolin-3-yl]-N-(2-methoxyethyl)acetamide]	403 nM	≥ 10000 nM	137 nM	≥ 10000 nM

Continued, values first:

Kd (BRAF (V600E))	EC50 [1]	Kd (BRAF (wt))	IC50 [2]	Compound
2.75 nM	7080 nM	1.09 nM	73.5 nM	CC(C)(C)OC(=O)NCCCn1cnc2ccc(Oc3c(F)ccc(NS(=O)(=O)N4CC[C@@H](F)C4)c3C#N)cc2c1=O [Example 4, tert-butyl N-[3-[6-[2-cyano-6-fluoro-3-[[(3R)-3-fluoropyrrolidin-1-yl]sulfonylamino]phenoxy]-4-oxo-quinazolin-3-yl]propyl]carbamate]
0.76 nM	≥ 10000 nM	0.42 nM	50.4 nM	CC(=O)N(C)CCCn1cnc2ccc(Oc3c(F)ccc(NS(=O)(=O)C4CCCC4)c3C#N)cc2c1=O [Example 24, N-[3-[6-[2-cyano-3-(cyclopentylsulfonylamino)-6-fluoro-phenoxy]-4-oxo-quinazolin-3-yl]propyl]-N-methyl-acetamide]
7.83 nM	2430 nM	4.86 nM	33.9 nM	CC(C)(C)OC(=O)NCCCn1cnc2ccc(Oc3c(F)ccc(NS(=O)(=O)C4CCCC4)c3C#N)cc2c1=O [Example 8, tert-butyl N-[3-[6-[2-cyano-3-(cyclopentylsulfonylamino)-6-fluoro-phenoxy]-4-oxo-quinazolin-3-yl]propyl]carbamate]
28.9 nM	≥ 10000 nM	27.9 nM	155 nM	CC(C)(C)OC(=O)N1CCCC(CCn2cnc3ccc(Oc4c(F)ccc(NS(=O)(=O)C5CCCC5)c4C#N)cc3c2=O)C1 (stereo not drawn) [Example 22, tert-butyl 3-[2-[6-[2-cyano-3-(cyclopentylsulfonylamino)-6-fluoro-phenoxy]-4-oxo-quinazolin-3-yl]ethyl]piperidine-1-carboxylate]
162 nM	6400 nM	78.3 nM	41 nM	CCN(C)S(=O)(=O)Nc1ccc(F)c(Oc2ccc3ncn(CCC4CCN(C(=O)OC(C)(C)C)CC4)c(=O)c3c2)c1C#N [Example 3, tert-butyl 4-[2-[6-[2-cyano-3-[[ethyl(methyl)sulfamoyl]amino]-6-fluoro-phenoxy]-4-oxo-quinazolin-3-yl]ethyl]piperidine-1-carboxylate]
10.2 nM	2300 nM	9.23 nM	49.7 nM	CC(C)(C)OC(=O)N1CCCC(CCn2cnc3ccc(Oc4c(F)ccc(NS(=O)(=O)N5CCCC5)c4C#N)cc3c2=O)C1 (stereo not drawn) [Example 23, tert-butyl 3-[2-[6-[2-cyano-6-fluoro-3-(pyrrolidin-1-ylsulfonylamino)phenoxy]-4-oxo-quinazolin-3-yl]ethyl]piperidine-1-carboxylate]

Reference: patent US12570615B2, “Quinazolinone derivatives” (Hoffmann-La Roche Inc., priority 2021, dated 2026)
